Measured values taken from patent publication US20260306463A1, “SIK INHIBITORS TO TREAT CHRONIC KIDNEY DISEASE” (The General Hospital Corporation, priority 2023, published 2026).
Entries after “also recorded” stand apart in the source; their conditions may differ.

Legend:
human kidney organoids [1] = assay: P21, gammaH2AX and LTL immunostaining in cisplatin-injured human kidney organoids; format: cell-based; conditions: for gammaH2AX induction: cisplatin; for gammaH2AX induction / P21 expression: concurrent SK-124 (FIG. 9); for LTL-positive proximal tubule cells / P21 / gammaH2AX: dose response, five cisplatin cycles (FIG. 11); for P21 expression: indicated number of cisplatin cycles
Protocol: FIG. 9. SK-124 treatment protects from cisplatin-induced P21 induction in human kidney organoids. Organoids were treated with the indicated number of cisplatin cycles in the presence of DMSO vehicle (top) or SK-124 (bottom). Organoids were then processed for P21 immunofluorescent microscopy.
FIG. 11. SK-124 protects human kidney organoids from cisplatin injury in a dose-dependent manner. Organoids were treated with five cisplatin cycles in the presence of the indicated doses of SK-124. Subsequently, organoids were immunostained to reveal cellular composition and injury markers P21 (top panels) and gammaH2AX (bottom panels). […] Proximal tubule cells are labeled with LTL staining and are reduced by cisplatin treatment and restored by SK-124 co-treatment.
(§1) For cisplatin induced injury, day 49 organoids were treated with 5 μM cisplatin in basal media after full media change. After 24 hours, full media exchanges were performed. This 24-hour treatment was performed twice a week, on day 52-53, day 56-57, day 59-60, and day 63-64 as well, for a total of five cisplatin treatments. Samples were obtained for RT-qPCR and immunostaining immediately following each 24-hour treatment with cisplatin, and from corresponding controls.
(§2) Following the treatment, the organoids were collected and immediately fixed in 4% PFA in PBS for 1 hour at room temperature, submerged in 30% sucrose overnight at 4° C., then embedded in O.C.T. Compound (4585. Fisher HealthCare). Subsequently, […] frozen sections were prepared via cryo-sectioning by a cryostat. After 1 hr blocking at room temperature, the sections were treated overnight at 4° C. with primary antibodies in antibody dilution buffer (ADB) with biotinylated LTL (1:200, B-1325, Vector), rat anti-CDH1 (1:500, ab11512, Abcam), goat anti-PODXL (1:500, AF1658, R&D Systems), as well as the antibody of interest, either mouse anti-p21 (1:200, NBP2-43697, Novus Biologicals), or rabbit anti-γH2AX (1:100, 2577, Cell Signaling) antibodies. For the optimum labeling of LTL by biotin/streptavidin interaction, the Streptavidin/Biotin Blocking Kit (SP-2002, Vector Laboratories) was applied according to the manufacturer's instructions. After washing, the samples were stained for 1 hour at RT with the nuclear dye-SYTOX Blue (1:500. S 11348, Invitrogen) and the corresponding secondary antibodies in ADB such as streptavidin-AF750 (1:500, S21384, Invitrogen), donkey anti-rat IgG-AF594 (1:500, A21209, Invitrogen), donkey anti-goat IgG-AF555 (1:500, A21432, Invitrogen), and donkey anti-rabbit IgG-AF488 (1:500, A21206, Invitrogen) for γH2AX or donkey anti-mouse IgG-AF488 (1:500, A21202, Invitrogen) for p21 antibodies as well as mouse anti-Meisl/⅔ (1:200, sc-101850, SantaCruz) conjugated antibody, and slides were mounted with Vectashield antifade mounting medium (H1000, Vector Laboratories).
Finally, the images were captured by the STELLARIS 8 confocal microscope (Leica Microsystems) using 25× water immersion objective lens. The mean diameters of the organoids were measured on the Leica Application Suite X (LAS X) software platform.

human kidney organoids [2] = assay: cisplatin injury of human kidney organoids: immunostaining, organoid size; format: cell-based; conditions: intermittent cisplatin, 5 treatments; for proximal tubule cells: confocal microscopy
Protocol: FIG. 7. SK-124 preserves human kidney organoid integrity in cisplatin injury model. Human kidney organoids derived from H9 embryonic stem cells were treated with intermittent cisplatin (5 separate treatments) based on published protocols along with the indicated agent. Organoids were cryo-sectioned and immuno-stained with the indicated markers. The top panels show low power images and the bottom panels focus on regions of proximal tubule cells. The graph measures the mean diameter of organoids in the control (no cisplatin), cisplatin+DMSO, and cisplatin+SK-124 treatment groups.
BJFF human induced pluripotent stem cells (hPSCs) were maintained on Geltrexcoated (Thermo Fisher Scientific) plates using StemFit Basic04 Complete (Ajinomoto Co. Inc.) as previously reported(25). The cells were passaged weekly using Accutase (STEMCELL Technologies) for dissociation and Y27632 (Tocris) for adhesion. Directed differentiation of hPSCs into kidney organoids has been published elsewhere (29). Briefly, hPSCs were differentiated into metanephric mesenchyme cells on day 8 by a three-step directed differentiation protocol. Metanephric mesenchyme was transferred into suspension culture in 96-well ultralow adhesion plates (Coming) and further differentiated into kidney organoids, as previously reported(25). Quality control measures of SIX2 immunostaining on day 8 of differentiation and CDH1, LTL, PODXL, CD146, MEIS1/2/3, and SYTOX-blue staining on day 21 were performed on all batches of kidney organoids to limit batch-to-batch heterogeneity. Kidney organoids were maintained in 200 μl of basal media consisting of Advanced RPMI (Thermo Fisher Scientific) and GlutaMAX (Thermo Fisher Scientific) in 96-well plates, as previously reported. Media changes were conducted three times weekly with removal of 90 [l and addition of 100 μl of fresh basal media.
as §1
as §2, with “Laboratories). […]” for “Laboratories).”

| SMILES | gammaH2AX induction (human kidney organoids [1]) | LTL-positive proximal tubule cells (human kidney organoids [1]) | P21 (human kidney organoids [1]) | gammaH2AX (human kidney organoids [1]) | P21 expression (human kidney organoids [1]) | proximal tubule cells (human kidney organoids [2]) | cisplatin-induced organoid atrophy (human kidney organoids [2]) | organoid cellularity and size in response to cisplatin injury (human kidney organoids [2]) |
| --- | --- | --- | --- | --- | --- | --- | --- | --- |
| N.N.[Cl][Pt][Cl] [cisplatin, reference compound] | robust P21 (top) and gammaH2AX (bottom) induction | reduced; also recorded: loss of LTL-positive proximal tubule cells | robust cisplatin-induced P21 induction | induced | induces P21 expression; also recorded: robust P21 (top) and gammaH2AX (bottom) induction | proximal tubular loss | – | – |
| CCc1nnc(-c2c(OC)cc(-c3cnc4cc(-c5cnn(C)c5)ccn34)cc2OC)o1 [SK-124, 2-[2,6-Dimethoxy-4-[7-(1-methylpyrazol-4-yl)imidazo[1,2-a]pyridin-3-yl]phenyl]-5-ethyl-1,3,4-oxadiazole] | markedly reduced | restored; also recorded: blocked by SK-124 treatment in a dose-dependent manner | reduced by SK-124 co-treatment in a dose-dependent manner; also recorded: blocked by SK-124 treatment in a dose-dependent manner | reduced by SK-124 co-treatment in a dose-dependent manner | markedly reduced | preserved proximal tubule cells | reduced cisplatin-induced organoid atrophy | preserves organoid cellularity and size |
